One compound from US6686345B2, “DNA-cleaving antitumor agents” (Research Development Foundation, priority 1998, dated 2004) can be followed below.

“Also recorded” adds a separate entry of the source.

The test system of data set [1] is Supercoiled DNA. The experiment in a line: DNA cleavage by heterocyclic variants (KeAZB series). Type of data set: biochemical. The procedure:
The gel depicted in FIG. 3 represents the results of the DNA cleavage experiment with KeAZB002. Supercoiled DNA (50 uM in 50 mM TRIS phosphate buffer, pH 8) was incubated with 0 (lanes 1, 5), 1 (lanes 2, 6), 100 (lanes 3, 7), or 1000 (lane 4) uM of KeAZB002 for 24 hours at 20° C. Samples for lanes 5-8 were loaded onto the agarose gel, whereas samples for lanes 1-4 were heated at 70° C. for 90 sec. prior to loading onto the gel. After electrophoresis at 60 V for 2 hrs, the DNA products were visualized with ethidium bromide staining and UV transillumination.

Data set [2] has as its system various cancer cell lines. Put plainly: In vitro cytotoxicity of KeAZB002 on various cancer cell lines. Type of data set: cell-based. To be noted: variety of cancer cell types, FIG. 16.
For data set [3], the system named is A549 non-small cell lung cancer cells. Put plainly: In vivo evaluation in SCID mice implanted with A549 cells.
Data set [4] in a line: Stability of KeAZB002 in aqueous solution. Type of data set: physicochemical.

`Cn1c(C#Cc2ccccc2)[n+](CC#Cc2ccccc2)c2ccccc21.F[B-](F)(F)F` [KeAZB002, N-phenylpropargyl-N-methyl-2-phenylethynylbenzimidazolium tetrafluoroborate]: in data set [1], the “DNA cleavage (in words)” value is reported as “cleaves DNA at micromolar concentrations; also recorded: cleaves the DNA, producing frank single strand breaks; also recorded: strongly temperature dependent”. Moreover, the “in vitro cytotoxicity (in words)” value in data set [2] is “shows activity against several tumor cell lines in vitro; also recorded: cytotoxic to a variety of cancer cell types”. The “antitumor activity in vivo (in words)” value in data set [3] is “demonstrates antitumor activity in vivo; also recorded: modest antitumor activity”. Besides, in data set [3] (seventeen days, versus control), the tumor weight result is “decreased consistently in comparison to control”. Further, the “stability in basic aqueous solution” value in data set [4] (basic aqueous solution) was “undergoes a series of reactions”. Also, the stability in water result in data set [4] (water at neutral pH) is “stable indefinitely”.
